Literature values, collected in patent publication US20170035778A1, “FORMULATIONS AND USES FOR MICROPARTICLE DELIVERY OF METALLOPORPHYRINS” (The Board of Trustees of the Leland Stanford Junior …, priority 2015, published 2017).

Settings: SnMP within 24 h of birth in premature newborns

tin mesoporphyrin [SnMP]
reduction of the requirement for phototherapy compared with control subjects: approximately 75%
